From PubChem BioAssay AID2305 (GlaxoSmithKline (GSK), 2010) come the findings set out here.

pIC50: −log10 of the molar value.

By pIC50 is commonly meant −log10 of the IC50, conventionally taken in molar units. Read a low pIC50 as a large IC50.

The assay has as its system P. falciparum 3D7 growth, pLDH absorbance. In words: P. falciparum 3D7 growth inhibition, dose response, strain 3D7 (AID 2305).

For the compound `O=C(Cc1cnc[nH]1)Nc1ccc(-c2ccc(-c3nc4ccc(C(F)(F)F)cc4[nH]3)s2)cc1`, the pIC50 is 6.18.
Regarding `CC[C@H](C)CNC(=O)c1ccnc(-c2cccc(CN3CCC(N4CCCC4)CC3)c2)c1`, the pIC50 is 6.07.
`Cc1c(CNCCCNc2nc3ccccc3[nH]2)sc(C(F)F)c1Br`: the pIC50 was 6.54. This pIC50 is 0.47 log units higher than that of the compound before.
Compound `CSc1ccc(CN2CCC(NC(=O)c3ccc(-c4ccc(N(C)C)cc4)s3)CC2)cc1` showed a pIC50 of 5.82.
On to `O=C(Nc1cccc(CN2CCN(Cc3ccc(O)cc3)CC2)c1)c1cc2ccccc2s1`, for which the pIC50 was 6.17.
With `CN(C)c1ccc(CN2CCC(NC(=O)c3ccc(-c4ccc(N(C)C)cc4)s3)CC2)cc1`, the pIC50 is 5.97.
In turn, `CN1CCN(CCCN(Cc2ccc(-c3cccc(CNC4CCCC4)c3)cc2)C(=O)/C=C/c2ccccc2)CC1` gave a pIC50 of 5.88.
Regarding `CC1CCc2c(C(=O)N3CCc4ccccc4C3)csc2C1` (stereo unspecified), the pIC50 is 6.11. Against the preceding compound, the pIC50 is 0.23 log units higher.
`Cc1ccc2nc(-c3ccc(C=CC(=O)NCc4ccc(Cl)c(Cl)c4)cc3)[nH]c2c1` showed a pIC50 of 6.05.
`O=C(/C=C/c1cccc(C(F)(F)F)c1)NCCCCCN1CCN(C(=O)Nc2ccc(Cl)c(Cl)c2)CC1`: the pIC50 was 6.03.
Next, `O=C(Nc1cccc(CN2CCCN(Cc3ncc[nH]3)CC2)c1)c1cc2ccccc2s1`: 6.14; `Cc1cc(-c2ccc3c(c2)CCN(CCCOc2ccc4c(c2)CCN4C(=O)/C=C/c2ccccc2Cl)CC3)no1`: 5.91.
As for `COc1ccc2ncc(F)c(CCN3CCC(NCc4cnc5c(c4)NC(=O)CS5)CC3)c2c1`, the figure is 6.24; as for `N=C(N)c1ccc(Oc2ccc(C(=N)N)cc2)cc1`, 6.49; as for `c1cc2nc(CCCCCc3nc4ccc(C5=N[C@@H]6CCCC[C@@H]6N5)cc4[nH]3)[nH]c2cc1C1=N[C@@H]2CCCC[C@@H]2N1`, 6.70.
For the compound `COc1ccc2nccc([C@@H](O)CN3CCC(NCC(=O)Nc4cc(F)cc(F)c4)CC3)c2n1`, the pIC50 is 6.04.
As for `COc1ccc(C(=O)C2CCN(CCCCNC(=O)c3ccc(NC(=O)c4cc(Cl)cc(Cl)c4)cc3)CC2)cc1`, the figure is 6.77; as for `Cc1[nH]c(C)c(-c2ccc(-c3ccccc3F)nc2)c(=O)c1Br`, 6.40; as for `CC[C@H]1CN(CCCn2c3ccccc3c3ccccc32)[C@@H](CC)CN1`, 5.97.
`c1ccc(CCNCc2ccc(-c3ccc(CNCc4ccc5c(c4)OCO5)cc3)nc2)cc1` showed a pIC50 of 5.90.
As for `COc1cc(C(=O)Nc2cccc(-c3cn4ccc(C)cc4n3)c2)cc(OC)c1OC`, the figure is 6.12; as for `CC(=O)C1(c2ccccc2)CCN(CCC2(c3ccc(Cl)c(Cl)c3)CN(C(=O)Nc3cc(F)cc(F)c3)CCO2)CC1` (stereo unspecified), 5.83.
The compound `N#Cc1ccc(N(CCOc2ccc3c(c2)CCC(=O)N3)Cc2ccccc2C(F)(F)F)cc1C(F)(F)F` had a pIC50 of 6.12.
Consider `O=C1CSc2ccc(CNC3CCN(CCc4c(F)cnc5ccc(F)cc45)CC3)nc2N1`, for which the pIC50 was 6.28.
`CC(=O)Oc1c(Cl)c(C)nc(C)c1-c1ccc(Oc2ccc(OC(F)(F)F)cc2)cc1` had a pIC50 of 7.00.
`c1cc(CNC2Cc3ccccc3C2)cc(-c2cnc(N3CCNCC3)nc2)c1` gave a pIC50 of 6.03.
For the compound `O=C(NC=Nc1cc([N+](=O)[O-])c(-c2ccncc2)n1-c1ccccc1)c1cccc(O)c1`, the pIC50 was 6.48. This pIC50 lies 0.45 log units higher than the previous one.
The compound `O=C(NCC1CC1)C1CCN(C(c2ccccc2)c2nc3ccccc3s2)CC1` (stereo unspecified) showed a pIC50 of 5.99.
In turn, `Oc1ccc(CNCCCCCCNCCc2ccc(Cl)cc2)cc1O` gave a negative-log IC50 (pIC50) of 6.00.
`NC(N)=NC(=O)Nc1cc(Cl)c(Cl)c(Br)c1` showed a pIC50 of 6.21.
As for `CCN(CC)CCN(Cc1ccc(-c2ccc(C(F)(F)F)cc2)cc1)C(=O)c1ccc(-c2ccc(C#N)cc2)cc1`, the pIC50 is 5.95.
In turn, `Cc1cc2nc(-c3ccc(/C=C/C(=O)NCc4ccc(Cl)c(Cl)c4)cc3)[nH]c2cc1C` showed a pIC50 of 6.09.
`COc1cc2nc(N3CCC(C(N)=O)CC3)nc(NCc3ccccc3)c2cc1OC` had a pIC50 of 6.05. The pIC50 values of the last two compounds are within 0.2 log units of each other.
As for `COc1ccc(Nc2nc(NN=Cc3ccc(O)cc3)nc(Nc3ccc([N+](=O)[O-])cc3)n2)cc1`, the figure is 5.95; as for `CCCN1CCCN(Cc2cccc(NC(=O)c3ccc(-c4ccccc4)cc3)c2)CC1`, 5.95; as for `Cc1cc(NC(=O)NCCN2CCC(NS(=O)(=O)c3ccc(C(F)(F)F)cc3)C2)c2ccccc2n1` (stereo unspecified), 6.19.
`CCOc1cc(C=Cc2nc3ccccc3c(=O)[nH]2)cc(Cl)c1O` had a pIC50 of 5.93.
In turn, `NC(N)=NN=CC(=O)Nc1cccc(C(F)(F)F)c1` showed a pIC50 of 6.00. The pIC50 values of the last two compounds are within 0.2 log units of each other.
As to `CCc1cccc(OCC2CCCN(c3ccc(C(=O)NC4CC4)cn3)C2)c1` (stereo unspecified), the pIC50 is 5.84. The pIC50 values of the last two compounds are within 0.2 log units of each other.
As for `O=C(Nc1cccc(-c2ccc(-c3nc4ccc(F)cc4[nH]3)s2)c1)c1cccnc1`, the figure is 6.21; as for `CCOc1ccc(-n2nc3c(Cl)nnc(-c4ccccc4)c3c2-c2ccccc2)cc1`, 6.64.
Next, `CCC1=C[C@@H]2CN(C1)Cc1c([nH]c3ccccc13)[C@@](C(=O)OC)(c1cc3c(cc1OC)N(C)[C@H]1[C@@](O)(C(=O)OC)[C@H](O)[C@]4(CC)C=CCN5CC[C@]31[C@@H]54)C2`: 6.06; `C[C@@H]1CN(c2cnn(C/C=C/c3ccc(NC(=O)c4ccc5nonc5c4)cc3)c(=O)c2Cl)C[C@H](C)N1`: 6.10.
Take `CC(C)CNCc1ccc(-c2ccccc2CNC2CCN(Cc3ccccc3)CC2)cc1`: the pIC50 is 6.24.
In turn, `Cc1ccc(C(=O)Cn2nc(-c3ccc(C)c(S(=O)(=O)N4CCCC4)c3)ccc2=O)cc1` gave a pIC50 of 6.29. The pIC50 values of the last two compounds are within 0.2 log units of each other.
The compound `Cc1cccc2[nH]c(-c3cccc(-c4ccc(CNCc5cccc(N)c5)cc4)c3)nc12` showed a negative-log IC50 (pIC50) of 6.59.
In turn, `Cc1ccc2[nH]c3c(NCCN(C)C)ncnc3c2c1` showed a pIC50 of 6.08. Against the preceding compound, the pIC50 is 0.51 log units lower.
As for `COc1cccc2c(NN=Cc3cccc(Cl)c3)cc(C)nc12`, the figure is 6.15; as for `CC(C)[C@H](NC(=O)c1ccc(O)c(-c2ccc(Cl)c(Cl)c2)c1)C(=O)NCCN(C)C`, 5.98; as for `CC(C)CCN=C(N)Nc1ccc(OCCCCCOc2ccc(NC(N)=NCCC(C)C)cc2)cc1`, 5.97.
`Cc1ccccc1-c1nc2c(CN3CCC(O)(c4ccccc4)CC3)c(O)ccc2[nH]1` showed a pIC50 of 6.06.
Next, `Cc1cc(N[C@@H](Cc2ccccc2)C(=O)NCc2cccc(F)c2)nc(NCCOc2ccccc2)n1`: 6.10; `COc1ccc2nccc(NN=Cc3ccccc3[N+](=O)[O-])c2c1`: 7.15; `COc1cc2nc(SCC(C)C)n(CCCn3ccnc3)c(=N)c2cc1OC`: 6.21.
Take `Cc1ccc(O)cc1Nc1ccnc2cc(-c3ccncc3)ccc12`: the pIC50 is 6.14.
`COc1ccccc1N1CCN(c2cccc3c2nc(-c2cncc(C#N)c2)n3CCNCc2ccccc2)CC1` showed a pIC50 of 6.15.
Take `Cc1cccc2[nH]c(-c3cccc(-c4cccc(NC(=O)c5ccncc5)c4)c3)nc12`: the pIC50 was 6.62.
As for `CCN1CCN(c2cc(C)c3cc(NC(=O)c4cccc([N+](=O)[O-])c4)ccc3n2)CC1`, the figure is 6.28; as for `CC(C)N1CCC(N(Cc2ccc(-c3ccc(Cl)cc3)cc2)C(=O)Cn2c(CCc3cccc(F)c3F)nc(=O)c3ccccc32)CC1`, 6.03.
As for `CNS(=O)(=O)Cc1ccc(Nc2nccc(Nc3cccc4c3cnn4C(=O)Nc3ccccc3)n2)cc1`, the figure is 6.02.
`O=C(Nc1cccc(-c2nn3ccccc3c2-c2ccnc(Nc3ccccc3)n2)c1)c1c(F)cccc1F` gave a pIC50 of 6.14.
Regarding `CN(C)Cc1ccc(CN2CCN(CCOc3ccc(-c4ccc(Cl)cc4)cc3)CC2)o1`, the pIC50 is 5.99.
For the compound `COc1ccc(CNC2CCN(C)CC2)cc1-c1cccc(S(=O)(=O)NCc2ccccc2)c1`, the pIC50 is 6.14. This pIC50 and that of the compound before are within 0.2 log units of each other.
Compound `COCCNCc1ncsc1-c1ccc2c(Nc3ccc(Oc4ccccc4)cc3)ccnc2c1` had a pIC50 of 6.05.
On to `Cc1cc(NCCC(=O)Nc2ccccc2)nc(NCCOc2ccccc2)n1`, for which the pIC50 was 5.94.
In turn, `CC[C@H]1CN(Cc2ccccc2Br)CC[C@H]1CCCc1ccnc2ccc(O)cc12` had a pIC50 of 6.00.
Turning to `Cc1nnc2c(NC(=O)NC3CCCC3)cc3cc(-c4ccc(CN5CCCCC5)cc4)ccc3n12`, the pIC50 is 6.02.
With `Cc1cccc2[nH]c(-c3ccc(-c4ccc(CNCC(C)C)cc4)cc3)nc12`, the pIC50 was 6.39.
As for `COc1ccc(Br)cc1/C=C/C(=O)Nc1cccc(C2CCCN(C)C2)c1` (stereo unspecified), the figure is 6.05.
As for `CN1CC[C@@H](Oc2cc(CNC(=O)c3ccc(-c4ccc(Cl)cc4)s3)ccc2C(F)(F)F)C1`, the figure is 5.99; as for `CC(=O)c1nccc(C)c1N`, 6.03.
Next, `CC(=O)N1N=C(c2cccs2)Sc2c1nc(-c1ccc(Cl)cc1)n2C(C)=O`: 6.13; `CCCCc1cc(NCC)nc(Nc2ccc(F)cc2)n1`: 6.10.
The compound `O=C(Nc1cccc(-c2ccc(-c3nc4ccc(C(F)(F)F)cc4[nH]3)cc2)c1)c1csnn1` gave a pIC50 of 6.16.
Compound `O=C(Nc1cccc(-c2ccc(CN3CCC(O)CC3)cc2)c1)c1cccc(Cl)c1` had a pIC50 of 6.12.
For `COc1ccc2nccc([C@@H](O)CN3CCC(NCc4ccc5scnc5c4)CC3)c2c1`, the pIC50 was 6.40. Against the preceding compound, the pIC50 is 0.28 log units higher.
For the compound `O=C(Nc1ccccc1Br)N[C@@H]1CCN(c2ccnc3ccccc23)C1`, the pIC50 was 6.03.
As for `Cc1cccc2[nH]c(-c3ccc(-c4cccc(NC(=O)Nc5ccc(Cl)cc5)c4)s3)nc12`, the figure is 6.28.
Regarding `Cc1cc(N)c2cc(NC(=O)c3cc4ccccc4s3)ccc2n1`, the negative logarithm of the IC50 (pIC50) was 6.96.
`Clc1ccc(-n2cnc3c(Nc4ccc(Oc5ccccc5)cc4)ncnc32)cc1Cl` had a pIC50 of 6.12.
With `CC(=O)c1ccc(NC(=O)NNC(=O)c2ccc(CCN3CCC(c4nc(COCC(F)(F)F)c(-c5ccc(F)cc5)o4)CC3)cc2)cc1`, the pIC50 is 6.08.
As for `COc1ccc(-c2ccc(NC(=O)c3ccc(C#N)cc3)cc2)cc1CN1CCCC1`, the figure is 6.06; as for `Cc1noc(C)c1-c1ccc2c(Nc3ccc([N+](=O)[O-])cc3)c(C(N)=O)cnc2c1`, 6.16; as for `Oc1ccc(Cc2ccccc2)cc1CNC1CCCCC1`, 6.72.
Compound `CCOc1cc(C(=O)NC2CC(C)(C)NC(C)(C)C2)ccc1-c1nc2ccc(Cl)cc2[nH]1` showed a pIC50 of 6.00.
Next, `COc1ccc2nccc([C@@H](O)CN3CCC(NC(=O)/C=C/c4cc([N+](=O)[O-])ccc4OC)CC3)c2c1`: 6.59.
